{"source": "paper PMC10994559", "about": "(PLOS Neglected Tropical Diseases, 2024)", "key": {"L. major promastigotes": {"system": "L. major promastigotes", "assay": "L. major promastigote viability, resazurin reduction", "assay_type": "cell-based, Leishmania major", "settings": "Leishmania major; for EC50: dose response, triplicate", "from_the_text": "The infectivity of the parasites was boosted by passaging in Balb/c mice and culturing the infected lymph nodes after six weeks. L. infantum (MHOM / BR / 76 / M4192) parasite was passaged in the same media formulation with 0.5% urine."}, "[1]": {"assay": "Cytotoxicity assay J774, resazurin reduction", "assay_type": "cell-based, murine", "settings": "mouse, J774 macrophage cells, cytotoxicity, 72 h; for viability at 72 h, 2.5 µM: read-out: Residual viability, J774 (2.5 µM); for viability at 72 h, 25 µM: read-out: Residual viability, J774 (25 µM)", "summary_of_the_method": "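J774 and HepG2 cells were seeded at 0.5x10^5 cell/well and exposed to serially diluted compounds for 72 h at 37°C, 5% CO2. Viability was read by fluorescence resazurin reduction (λEx 550 nm, λEm 590 nm).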"}, "L. major": {"system": "L. major", "assay": "Cutaneous leishmaniasis mouse model: lymph node parasite burden (qPCR) and footpad swelling", "assay_type": "in vivo, Balb/c mice", "settings": "for Parasite load in popliteal lymph nodes (qPCR kDNA) vs DMSO control: PHT-39 13.75 mg/kg i.p. daily or s.c. every other day; for Parasite load in popliteal lymph nodes (qPCR kDNA) vs DMSO control / Footpad swelling vs DMSO control: AmB 8 mg/kg i.p.; for Footpad swelling vs DMSO control: day 21 post challenge", "description": "Female Balb/c mice, aged 6–8 weeks, were purchased from the breeding stock in Czech Republic (Animalab, Czech Republic). Animals were kept under standard conditions according to European ethical guidelines for experimental animals.\n(§1) L. major metacyclic promastigotes were prepared from a five day stationary phase culture through Ficoll gradient centrifugation according to previous studies with minor changes: Briefly, a 20% and 10% Ficoll gradient were prepared in PBS and M199 media, respectively and placed in a 14 ml falcon tube. Then, 1x10^9 L. major promastigotes were loaded on top of gradient and centrifuged. Metacyclic parasites were collected between two layers. Four groups of mice (n = 6) were challenged by subcutaneous injection of 2x10^6 stationary phase metacyclic promastigotes (50 μl in PBS) into the left hind footpad. Two weeks after infectious challenge, animals were treated by i.p or intralesional (s.c) PHT-39 injection (13.75 mg/kg body weight), daily or every other day, respectively, for ten days. AmB (8 mg/kg body weight) was applied as positive control drug (i.p injection for ten days) and 5% DMSO in distilled water was applied as negative control (s.c injection for ten days) (Table 1).\n(§2) Every four days after the challenge, body weight was monitored and footpad swelling changes were measured (Footpad swelling = (height + width)/2) with a metric caliper (Kroeplin, IP65, D-series, external measuring gauge).\nAfter the 10 days course of treatment all animals were sacrificed, and popliteal lymph nodes of each infected footpad were collected for parasite load determination. Genomic DNA was extracted from the lymph nodes (DNeasy Blood and Tissue kit, Qiagen). Equal concentration of samples (125 ng) was applied to quantify leishmania kDNA with primers RV1(forward: 5’-[…]-3’) and RV2 (reverse: 5’-CCACCTG […]-3’). qPCR data was normalized using the murine house-keeping gene GAPDH amplified with primers (forward:5’[…]3’; reverse: 5’[…]3’) in parallel using Maxima SYBR green qPCR master (Thermo). qPCR was performed using Biorad CFX96 device with 95°C/ 10 min (initial denaturation), then 95°C/15s (denaturation), 60°C /30s (annealing) and 72°C/ 40s (extension) over 40 cycles. For ΔCT calculation of samples, every CT were subtracted from the same on GAPDH. Then, ΔΔCT of each group was normalized according to negative control group (DMSO).\nThe most significant requirement of an anti-leishmanial drug is its ability to reduce the parasite burden in the infected host. […] Briefly, four groups of 6–8 weeks Balb/c mice were challenged with 2 x 10^6 L. major promastigotes subcutaneously injected into the hind footpad. Treatment started after two weeks when a wound started to form. Two groups were treated with PHT-39 compound at doses of 13.75 mg/kg either via i.p route, daily, or s.c route, every other day for 10 days. One group received a daily dosage of AmB as a control, and another infected non-treated group was included in the study. After 10 days, popliteal lymph nodes were collected to assess parasite burden and immune response stimulation was studied in spleen cell culture supernatants."}, "[2]": {"assay": "Body weight and tolerability during treatment in the mouse model", "assay_type": "in vivo, Balb/c mice", "settings": "for Body weight during treatment course: PHT-39 13.75 mg/kg i.p. or s.c., AmB 8 mg/kg i.p., vs DMSO", "description": "as §1, §2"}, "[3]": {"system": "L. major axenic amastigotes", "assay": "L. major axenic amastigote viability, resazurin reduction", "settings": "Leishmania major; for viability at 2.5 µM / viability at 25 µM: 72 h; for viability at 2.5 µM: read-out: Residual viability, L.major amastigote (2.5 µM); for viability at 25 µM: read-out: Residual viability, L.major amastigote (25 µM); for EC50: read-out: EC50 L. major axenic amastigote", "summary_of_the_method": "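Axenic L. major LV561 amastigotes were grown in Grace medium with 20% FCS, pH 5.4, at 33°C and seeded at 0.5x10^5 cells/well with compounds for 72 h. Resazurin was then added for 6 h and fluorescence read at ex 550/em 590 nm; hits were retested at 2.5 μM.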"}, "[4]": {"system": "intracellular L. infantum amastigotes", "assay": "Parasite rescue assay (intramacrophage, J774 infected with L. infantum)", "assay_type": "cell-based, Leishmania infantum"}, "[5]": {"settings": "PHT-39 13.75 mg/kg i.p. or s.c."}, "[6]": {"settings": "Leishmania infantum, J774, read-out: EC50 L. infantum rescue assay, intramacrophage (J774), 18 concentrations"}}, "note": "“And” between values parts separate entries of the source, which are not always exact repeats. Identical values can stand only once. “Also recorded” adds a separate entry of the source. Like-named read-outs stand apart in the source and are kept apart here.", "data": [{"smiles": "CC[C@@H](C)[C@H](c1nc2ccccc2n1Cc1cn(-c2ccc(C(F)(F)F)cc2)nn1)N1C(=O)c2ccccc2C1=O", "note": "[PHT-39]", "values": [{"measurement": "viability at 25 µM", "setting": "L. major promastigotes; 72 h, read-out: Residual viability, L.major promastigote (25 µM)", "value": "16.6 ± 1.6", "unit": "%"}, {"measurement": "EC50", "setting": "L. major promastigotes", "value": "5.9 ± 1.8", "unit": "µM"}, {"measurement": "viability at 72 h, 2.5 µM", "setting": "[1]", "value": "98.3 ± 2.92", "unit": "%"}, {"measurement": "viability at 72 h, 25 µM", "setting": "[1]", "value": "68 ± 9.09", "unit": "%"}, {"measurement": "Parasite load in popliteal lymph nodes (qPCR kDNA) vs DMSO control", "setting": "L. major; 10 days", "value": "did not show a significant difference; also recorded: not significantly changed"}, {"measurement": "Elimination of L. major infection in cutaneous leishmaniasis model", "setting": "L. major; PHT-39 13.75 mg/kg i.p. or s.c., 10 days, 13.75 mg/kg", "value": "unable to eradicate L. major infection; also recorded: failed to eliminate the Leishmania infection"}, {"measurement": "Parasite burden in lymph nodes", "setting": "L. major; PHT-39 13.75 mg/kg s.c. every other day", "value": "lower but insignificant parasite burden"}, {"measurement": "Footpad swelling vs DMSO control", "setting": "L. major; [5]", "value": "Neither of the test groups showed significant difference with the DMSO control; also recorded: did not show any significant changes"}, {"measurement": "Body weight during treatment course", "setting": "[2]", "value": "did not affect the body weight"}, {"measurement": "Compound related toxicity in mice", "setting": "[2]; intraperitoneal or subcutaneous injection for 10 and 5 days", "value": "did not expose any compound related toxicity"}, {"measurement": "viability at 2.5 µM", "setting": "[3]", "value": "62.1 ± 3.43", "unit": "%"}, {"measurement": "viability at 25 µM", "setting": "[3]", "value": 2.6, "unit": "%"}, {"measurement": "EC50", "setting": "[3]", "value": "2.6 ± 1.8", "unit": "µM"}, {"measurement": "EC50", "setting": "[4]; [6]", "value": "1.2 ± 3.2", "unit": "µM"}, {"measurement": "viability at 25 µM", "setting": "[4]; Leishmania infantum, J774, rescue assay in J774, 25 µM, read-out: Residual viability, intracellular L. infantum amastigote (25 µM)", "value": 16.3, "unit": "%"}, {"measurement": "EC50", "setting": "[4]; read-out: EC50 L. infantum rescue assay, intramacrophage (J774), 18 concentrations, listed as PH-39", "value": "1.21 ± 3.2", "unit": "µM"}, {"measurement": "Residual viability, intracellular L. infantum amastigote (25 µM)", "setting": "[4]; rescue assay in J774, 25 µM, 25 µM", "value": "16.34±4.67", "unit": "%"}]}, {"smiles": "C[C@@H]1[C@H](O)[C@@H](C)/C=C/C=C/C=C/C=C/C=C/C=C/C=C/[C@H](O[C@@H]2O[C@H](C)[C@@H](O)[C@H](N)[C@@H]2O)C[C@@H]2O[C@](O)(C[C@@H](O)C[C@@H](O)[C@H](O)CC[C@@H](O)C[C@@H](O)CC(=O)O[C@H]1C)C[C@H](O)[C@H]2C(=O)O", "note": "[AmB, amphotericin B, reference compound]", "values": [{"measurement": "EC50", "setting": "L. major promastigotes", "value": 0.2, "unit": "µM"}, {"measurement": "viability at 72 h, 2.5 µM", "setting": "[1]", "value": "101 ± 11.8", "unit": "%"}, {"measurement": "viability at 72 h, 25 µM", "setting": "[1]", "value": "57.73 ± 0.52", "unit": "%"}, {"measurement": "Parasite load in popliteal lymph nodes (qPCR kDNA) vs DMSO control", "setting": "L. major; 10 days", "value": "reduce the parasite load significantly; also recorded: reduction of parasite load in the AmB group was significant"}, {"measurement": "Footpad swelling vs DMSO control", "setting": "L. major; [5]", "value": "reduced significantly; also recorded: effectively reduced the swelling"}, {"measurement": "Body weight during treatment course", "setting": "[2]", "value": "significant differences with other groups"}, {"measurement": "viability at 2.5 µM", "setting": "[3]", "value": "2.71 ± 1.02", "unit": "%"}, {"measurement": "viability at 25 µM", "setting": "[3]", "value": "0.33 ± 2.12", "unit": "%"}, {"measurement": "EC50", "setting": "[3]", "value": 0.3, "unit": "µM"}, {"measurement": "EC50", "setting": "[4]; [6]", "value": 0.6, "unit": "µM"}, {"measurement": "viability at 25 µM", "setting": "[4]; Leishmania infantum, J774, read-out: Residual viability, intracellular L. infantum amastigote (25 µM)", "value": "15.4 ± 6.9", "unit": "%"}, {"measurement": "EC50", "setting": "[4]; read-out: EC50 L. infantum rescue assay, intramacrophage (J774), 18 concentrations", "value": "0.7 µM and 0.66 µM"}]}]}
